# Measurements taken from patent US10398783B2, “Antiproliferative compounds and conjugates made therefrom” (BRISTOL-MYERS SQUIBB COMPANY, priority 2016, dated 2019).
# Tests used:
# Type in all cases: cell-based, human
# [1] = system: mesothelioma (H226) cancer cell line; experiment: 72 hr ATP luminescence cell proliferation inhibition assay, H226
# Protocol: (§1) Proliferation inhibition was measured using a 72 hr ATP luminescence assay (Cheng et al., U.S. Pat. No. 8,394,922 B2 (2013)). The antiproliferative effects are reported as IC50's, i.e., the concentration of compound that produces a 50% inhibitory effect on cell proliferation.
# [2] = system: ovarian cancer (OVCAR3) cell line; experiment: 72 hr ATP luminescence cell proliferation inhibition assay, OVCAR3
# Protocol: as §1
# [3] = system: gastric (stomach) cancer (N87) cell line; experiment: 72 hr ATP luminescence cell proliferation inhibition assay, N87; conditions: N87 cells
# Protocol: as §1
# [4] = system: colon cancer (HCT116) cell line; experiment: 72 hr ATP luminescence cell proliferation inhibition assay, HCT116
# Protocol: as §1
Structure (SMILES),IC50 ([1]; H226 cells) [nM],IC50 ([2]; OVCAR3 cells) [nM],IC50 [3] [nM],IC50 ([4]; HCT116 cells) [nM],"IC50 ([1]; Homo sapiens, NCI-H226, H226 cells) [nM]","IC50 ([2]; Homo sapiens, OVCAR-3, OVCAR3 cells) [nM]",IC50 ([3]; Homo sapiens) [nM],"IC50 ([4]; Homo sapiens, HCT-116, HCT116 cells) [nM]"
COc1cc2c(cc1OCCCC(=O)Nc1ccc(C(=O)Nc3ccccc3)cc1)N=C[C@@H]1Cc3ccccc3CN1C2=O [(Ib-01)],1.2,0.38,0.65,0.73,–,–,–,–
COc1cc2c(cc1OCCCC(=O)Nc1ccccc1C(=O)Nc1ccccc1)N=C[C@@H]1Cc3ccccc3CN1C2=O [(Ib-02)],< 250,140,93,< 250,–,–,–,–
COc1cc2c(cc1OCCCC(=O)Nc1cccc(C(=O)Nc3ccccc3)c1)N=C[C@@H]1Cc3ccccc3CN1C2=O [(Ib-03)],9.4,3.1,2.4,6.9,–,–,–,–
COc1cc2c(cc1OCCCC(=O)Nc1ncc(C(=O)Nc3ccccc3)s1)N=C[C@@H]1Cc3ccccc3CN1C2=O [(Ib-04)],5.6,0.78,2.6,2.7,–,–,–,–
COc1cc2c(cc1OCCCC(=O)Nc1nc(C(=O)Nc3ccccc3)cs1)N=C[C@@H]1Cc3ccccc3CN1C2=O [(Ib-05)],0.23,0.27,0.11,0.12,–,–,–,–
COc1cc2c(cc1OCCCC(=O)Nc1cc(C(=O)Nc3ccc(-n4cnc(C)n4)nc3)n(C)c1)N=C[C@@H]1Cc3ccccc3CN1C2=O [(Ib-06)],< 0.004,0.031,0.009,0.008,–,–,–,–
COc1cc2c(cc1OCCCC(=O)Nc1cc(C(=O)Nc3ccc(-n4cnc(Cl)c4)nc3)n(C)c1)N=C[C@@H]1Cc3ccccc3CN1C2=O [(Ib-07)],0.02,0.024,0.073,0.018,–,–,–,–
COc1cc2c(cc1OCCCC(=O)Nc1cc(C(=O)Nc3ccc(-n4cnc(C)n4)c(F)c3)n(C)c1)N=C[C@@H]1Cc3ccccc3CN1C2=O [(Ib-08)],0.007,0.013,0.006,< 0.004,–,–,–,–
COc1cc2c(cc1OCCCC(=O)Nc1cc(C(=O)Nc3ccc(-n4cnc(C)n4)c(C(F)F)c3)n(C)c1)N=C[C@@H]1Cc3ccccc3CN1C2=O [(Ib-09)],0.05,0.12,0.035,0.039,–,–,–,–
COc1cc2c(cc1OCCCC(=O)Nc1cc(C(=O)Nc3ccc(-n4cnc(C(F)F)n4)c(OC)c3)n(C)c1)N=C[C@@H]1Cc3ccccc3CN1C2=O [(Ib-10],0.018,0.037,0.026,0.014,–,–,–,–
COc1cc2c(cc1OCCCC(=O)Nc1cc(C(=O)Nc3ccc(-n4cnc(C)n4)c(OCC(F)F)c3)n(C)c1)N=C[C@@H]1Cc3ccccc3CN1C2=O [(Ib-11)],0.98,0.1,0.12,0.026,–,–,–,–
COc1cc2c(cc1OCCCC(=O)Nc1cc(C(=O)Nc3ccc(-n4cnc(C)n4)c(OC(F)F)c3)n(C)c1)N=C[C@@H]1Cc3ccccc3CN1C2=O [(Ib-12)],0.059,0.074,0.027,0.023,–,–,–,–
COc1cc2c(cc1OCCCC(=O)Nc1cc(C(=O)Nc3ccc(-n4cnc(C)n4)c(OC)c3)n(C)c1)N=C[C@@H]1Cc3ccccc3CN1C2=O [(Ib-13)],–,–,–,–,0.039,0.17,0.14,0.036
COc1cc2c(cc1OCCCC(=O)Nc1cc(C(=O)Nc3ccc(-c4cccc(C(=O)OC(C)C)c4)cc3)n(C)c1)N=C[C@@H]1Cc3ccccc3CN1C2=O [(Ib-14)],0.67,0.18,0.049,0.07,–,–,–,–
COc1ccc(-c2ccc(NC(=O)c3cc(NC(=O)CCCOc4cc5c(cc4OC)C(=O)N4Cc6ccccc6C[C@H]4C=N5)cn3C)cc2)cc1 [(Ib-15)],< 0.004,< 0.004,< 0.004,0.002,–,–,–,–
COc1cc2c(cc1OCCCC(=O)Nc1cc(C(=O)Nc3ccc(-n4cnc(C)n4)cc3)n(C)c1)N=C[C@@H]1Cc3ccccc3CN1C2=O [(Ib-16)],< 0.004,0.12,< 0.004,< 0.004,–,–,–,–
COc1cc2c(cc1OCCCC(=O)Nc1cc(C(=O)Nc3ccc(-n4cncn4)cc3)n(C)c1)N=C[C@@H]1Cc3ccccc3CN1C2=O [(Ib-17)],< 0.004,0.028,0.009,0.011,–,–,–,–
COc1cc2c(cc1OCCCC(=O)Nc1cc(C(=O)Nc3ccc(-n4cnc(C(F)F)c4)c(OC)c3)n(C)c1)N=C[C@@H]1Cc3ccccc3CN1C2=O [(Ib-18)],0.11,0.2,0.052,0.055,–,–,–,–
COc1cc2c(cc1OCCCC(=O)Nc1cc(C(=O)Nc3ccc(-n4cnc(Cl)c4)c(OC)c3)n(C)c1)N=C[C@@H]1Cc3ccccc3CN1C2=O [(Ib-19)],0.11,0.23,0.045,0.038,–,–,–,–
COc1cc2c(cc1OCCCC(=O)Nc1cc(C(=O)Nc3ccc(-n4cnc(Cl)c4)c(F)c3)n(C)c1)N=C[C@@H]1Cc3ccccc3CN1C2=O [(Ib-20)],0.031,0.1,0.014,0.027,–,–,–,–
COc1cc2c(cc1OCCCC(=O)Nc1cc(C(=O)Nc3ccc(-n4cnc(C)c4)c(OC)c3)n(C)c1)N=C[C@@H]1Cc3ccccc3CN1C2=O [(Ib-21)],0.19,0.35,0.091,0.057,–,–,–,–
COc1cc2c(cc1OCCCC(=O)Nc1cc(C(=O)Nc3ccc(-n4ccnc4)cc3)n(C)c1)N=C[C@@H]1Cc3ccccc3CN1C2=O [(Ib-22)],0.18,0.91,0.24,0.088,–,–,–,–
COc1cc2c(cc1OCCCC(=O)Nc1cc(C(=O)Nc3ccc(-c4cocn4)cc3)n(C)c1)N=C[C@@H]1Cc3ccccc3CN1C2=O [(Ib-23)],0.036,0.022,0.014,0.007,–,–,–,–
COc1cc2c(cc1OCCCC(=O)Nc1cc(C(=O)Nc3cnn(-c4ccccc4)c3)n(C)c1)N=C[C@@H]1Cc3ccccc3CN1C2=O [(Ib-24)],0.053,0.16,0.074,0.008,–,–,–,–
COC(=O)c1nc(-c2ccc(NC(=O)c3cc(NC(=O)CCCOc4cc5c(cc4OC)C(=O)N4Cc6ccccc6C[C@H]4C=N5)cn3C)cc2)cn1C [(Ib-25)],0.15,0.35,0.084,0.057,–,–,–,–
COc1cc2c(cc1OCCCC(=O)Nc1cc(C(=O)Nc3ccc(-n4cnc(C)n4)c(O)c3)n(C)c1)N=C[C@@H]1Cc3ccccc3CN1C2=O [(Ib-26)],< 0.004,0.44,< 0.004,0.025,–,–,–,–
C=CCOc1cc(NC(=O)c2cc(NC(=O)CCCOc3cc4c(cc3OC)C(=O)N3Cc5ccccc5C[C@H]3C=N4)cn2C)ccc1-n1cnc(C)n1 [(Ib-27)],0.067,0.15,0.021,0.02,–,–,–,–
COc1cc2c(cc1OCCCC(=O)Nc1cc(C(=O)Nc3cc(C)c(-n4cncn4)c(C)c3)n(C)c1)N=C[C@@H]1Cc3ccccc3CN1C2=O [(Ib-28)],0.72,0.4,0.18,0.18,–,–,–,–
COc1cc2c(cc1OCCCC(=O)Nc1cc(C(=O)Nc3ccc(-n4cncn4)c(OC)c3)n(C)c1)N=C[C@@H]1Cc3ccccc3CN1C2=O [(Ib-29)],0.1,0.16,0.042,0.041,–,–,–,–
COc1cc2c(cc1OCCCC(=O)Nc1cc(C(=O)Nc3ccc(-c4ncc[nH]4)cc3)n(C)c1)N=C[C@@H]1Cc3ccccc3CN1C2=O [(Ib-30)],0.66,0.76,0.37,0.1,–,–,–,–
